Source: PubChem BioAssay (NCI)
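Results reflect a 48-hour exposure of cells in 96-well plates to compound at five concentrations. At the GI50, growth is halved. TGI is the concentration that stops growth completely.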

Key:
Assay in all cases: NCI tumour cell line growth inhibition, 48 h
HCT-15 colon = system: HCT-15 colon
MCF7 breast = system: MCF7 breast
OVCAR-5 ovarian = system: OVCAR-5 ovarian
SF-295 CNS = system: SF-295 CNS
RPMI-8226 leukemia = system: RPMI-8226 leukemia
ACHN renal = system: ACHN renal
T-47D breast = system: T-47D breast
A549 NSCLC = system: A549 NSCLC
HT29 colon = system: HT29 colon
SK-MEL-5 melanoma = system: SK-MEL-5 melanoma

Row | Compound | TGI (HCT-15 colon) | TGI (MCF7 breast) | TGI (OVCAR-5 ovarian) | TGI (SF-295 CNS) | TGI (RPMI-8226 leukemia) | TGI (ACHN renal) | TGI (T-47D breast) | TGI (A549 NSCLC) | TGI (HT29 colon) | TGI (SK-MEL-5 melanoma) | GI50 (HCT-15 colon) | GI50 (MCF7 breast) | GI50 (OVCAR-5 ovarian) | GI50 (SF-295 CNS) | GI50 (RPMI-8226 leukemia) | GI50 (ACHN renal) | GI50 (T-47D breast) | GI50 (A549 NSCLC) | GI50 (HT29 colon) | GI50 (SK-MEL-5 melanoma)
1 | CC(C)OC(=O)NNc1cc(Cl)ccc1Cl | > 100 µM | > 100 µM | > 100 µM | > 100 µM | > 100 µM | > 100 µM | > 100 µM | > 100 µM | > 100 µM | > 100 µM |  |  |  |  |  |  |  |  |  | 
2 | COc1ccc2[nH]c3c4c(ccc3c2c1)C(=O)C=CC4=O | 11.4 µM | 30.1 µM | 41.5 µM | 53.9 µM | 10.4 µM | 15 µM | 9.75 µM | 62.8 µM | 46.9 µM | 40.1 µM |  |  |  |  |  |  |  |  |  | 
3 | O=C(Nc1ccc(Br)cc1)c1ccc(Cl)c(Cl)c1 | > 100 µM | > 31.4 µM | > 100 µM | 4.94 µM | > 100 µM | > 28.6 µM | > 27.9 µM | > 100 µM | > 100 µM | > 100 µM | 3.02 µM | 2.19 µM | 3.9 µM | 2.03 µM | 3.15 µM | 2.83 µM | 2 µM | 3.76 µM | 3.42 µM | 3.45 µM
4 | COc1ccc(Nc2c3ccccc3nc3occ(Cl)c23)cc1 |  | > 33.2 µM | > 100 µM | 0.0558 µM | 0.571 µM | > 100 µM | > 100 µM | 3.95 µM | > 34.8 µM | 0.521 µM | < 0.01 µM | < 0.01 µM | 0.269 µM | < 0.01 µM | 0.0145 µM | 1.44 µM | 0.0883 µM | < 0.0112 µM | < 0.0145 µM | < 0.01 µM
5 | Cc1cn2c(/C=C3\C(=O)N(C)c4ccc(O)cc43)c(C)nc2s1 | > 100 µM | 11.9 µM | > 100 µM | 23.6 µM | > 100 µM | > 100 µM | 64.5 µM | > 100 µM | 18.4 µM | 57.6 µM | 4.16 µM | 2.97 µM | 27.8 µM | 2.82 µM | 5.98 µM | 13.3 µM | 4.48 µM | 7.9 µM | 3.12 µM | 3.45 µM
6 | O=C(Nc1ccc(CO)cc1)c1coc2ccccc2c1=O | > 100 µM | > 100 µM | > 100 µM | > 100 µM | > 100 µM | > 100 µM | > 100 µM | > 100 µM | > 100 µM | > 100 µM | > 100 µM | > 100 µM | > 100 µM | 65.6 µM | 84.8 µM | > 100 µM | > 100 µM | > 100 µM | > 100 µM | > 100 µM
7 | NC(N)=NCCCCCNc1noc(Cc2c[nH]c3cc(Br)ccc23)n1 | > 100 µM | 45 µM | > 100 µM | 56.6 µM | 47.1 µM | > 100 µM | 32.3 µM | > 100 µM | > 100 µM | 16.2 µM | 60.5 µM | 16.3 µM | 24.9 µM | 17.8 µM | 6.78 µM | 39.9 µM | 6.04 µM | 14.2 µM | 19.5 µM | 4.52 µM
8 | COc1ccc2ncn(-c3cc(O[C@H](C)c4ccccc4Cl)c(C(N)=O)s3)c2c1 | > 25 µM | 4.17 µM | > 25 µM | 7.05 µM | 8.71 µM | > 25 µM | 8.3 µM | > 25 µM | 9.13 µM | 0.54 µM | 0.0203 µM | 0.00895 µM | 0.0263 µM | 0.0189 µM | 0.016 µM | 1.13 µM | 1.07 µM | 0.0287 µM | 0.00813 µM | 0.00951 µM
9 | Cc1c(C2=C(Br)C(=O)N(C)C2=O)c(=O)n(C)c(=O)n1C | 45.2 µM | 37.1 µM | > 100 µM | > 100 µM | 46.3 µM | 94.3 µM | 42.6 µM | > 100 µM | 42.2 µM | 52.1 µM |  |  |  |  |  |  |  |  |  | 
10 | COc1ccc2c(O)cc3c(c2c1)[C@H](CCl)CN3C(=O)c1cc2cc(NC(=O)CCN3CCOCC3)ccc2[se]1 |  | 1.39 µM | 1.29 µM | < 0.001 µM | 0.0263 µM | < 0.001 µM |  |  | > 3.24 µM | < 0.001 µM | < 0.001 µM | < 0.001 µM | < 0.001 µM | < 0.001 µM | 0.00149 µM | < 0.001 µM | < 0.001 µM |  | < 0.001 µM | < 0.001 µM
11 | CN(CCCNC(=O)Cc1ccc2ccc3cccc4ccc1c2c34)CCCNc1cc(-c2ccc3ccccc3c2)nc2ccccc12 | 2.94 µM | 2.08 µM | 3.28 µM |  | 4.11 µM | 2.87 µM | 4.19 µM | 3.75 µM | 1.69 µM | 3.01 µM | 1.52 µM | 0.587 µM | 1.82 µM |  | 1.22 µM | 1.42 µM | 2.04 µM | 1.83 µM | 0.511 µM | 1.64 µM
